Consider one compound from article PMC4595804, “A strategy to discover decoy chemokine ligands with an anti-inflammatory activity” (Scientific Reports, 2015).

The target of the assay is T1, mouse CCL17 (Mus musculus, UniProt Q9WUZ6).
T1 construct: purchased R&D systems
Put plainly: Calcium responses induced by mouse CCL17, neutraligand protocol, CCR4+Gqi5+ HEK cells. It counts as cell-based. The note with it: 5 nM mouse CCL17 preincubated 1 h with compound; read-out: IC50, inhibition of mouse CCL17-evoked calcium signaling. Here is the method: Dye loaded cells were placed in the FlexStation 3 (Molecular Devices). Calcium mobilization was measured at 401 and 475 nm emission fluorescence after excitation at 355 nm. For the primary screening, the ligands (50μl of chemokine mixed with DMSO or test compounds) were added to the cells at 40 s, followed by digitonin addition (50μl) at 100 s to the cells. Molecules were screened at a final concentration of 2μg/ml with 5 nM CCL17 or CCL22. […] Raw fluorescence data (at 401 and 475 nm) were exported and the ratio 401/475 was calculated. The calcium response values (height of peak response over baseline) were determined. Hits were selected by comparing the response amplitude at the time of the chemokine addition ± test compound. The Z’ factor[29] was calculated according to the following equation: Z’ = 1-(3SD+ + 3SD−)/|Ave+ − Ave−|, where SD+ and Ave+ are respectively the standard deviation and the mean value of the positive controls (chemokine + DMSO), while SD− and Ave− are respectively the standard deviation and the mean value of the negative controls (HEPES-BSA (0.1%) mixed with DMSO, or cells mixed with C-021). Hit molecules were confirmed by performing concentration-response curves and their half maximal inhibitory concentration (IC50) values were calculated using the Kaleidagraph software. […]
neutraligand. Human (○) or mouse (●) CCL17 (5nM) was preincubated with increasing […]

T1 sequence (Q9WUZ6 24-93): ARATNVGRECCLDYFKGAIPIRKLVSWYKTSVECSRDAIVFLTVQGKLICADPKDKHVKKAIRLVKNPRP

Broadly, the IC50 is the concentration that inhibits the measured activity by half. With `CC(C)=CCn1cnc2c1c(=O)n(C)c(=O)n2C` [GPN279, 1,3-dimethyl-7-(3-methylbut-2-enyl)-1H-purine-2,6(3H, 7H)-dione], the half-inhibitory concentration (IC50) came out at 5.2 ± 0.9 µM.
